The values that follow come from patent publication US20070026065A1, “Solid, modified-release pharmaceutical dosage forms which can be administered orally” (Bayer HealthCare AG, priority 2004, published 2007).

A short description of one data set: Plasma half-life. Type of data set: in vivo. From the text:
(§1) Accordingly, for the desired once a day administration, specific pharmaceutical formulations with modified release of the active ingredient (I), taking account of its physicochemical and biological properties, are required.

Another data set in a line: Solubility in water. Conditions: 25° C. The data set is classed as physicochemical.
Excerpt: as §1

Values after ≈ are worked out from the molar mass of the structure shown.

On to `O=C(NC[C@H]1CN(c2ccc(N3CCOCC3=O)cc2)C(=O)O1)c1ccc(Cl)s1` [active ingredient (I), 5-Chloro-N-({(5S)-2-oxo-3-[4-(3-oxo-4-morpholinyl)phenyl]-1,3-oxazolidin-5-yl}methyl)-2-thiophenecarboxamide], for which the half-life in “Plasma half-life” is roughly 7 h. In “Solubility in water”, the solubility is roughly 7 µg/mL (≈ 16.1 µM).
